Read-outs that look alike come from different tables or passages of the source.
Target: T1, Gal4-HNF4α (human HNF4α LBD) (Homo sapiens, UniProt P41235)
T1 construct: uniprot entry: P41235-1, residues 142-377; expressed in transfected cells; host or cells: HEK293T
T1 sequence (P41235 142-377): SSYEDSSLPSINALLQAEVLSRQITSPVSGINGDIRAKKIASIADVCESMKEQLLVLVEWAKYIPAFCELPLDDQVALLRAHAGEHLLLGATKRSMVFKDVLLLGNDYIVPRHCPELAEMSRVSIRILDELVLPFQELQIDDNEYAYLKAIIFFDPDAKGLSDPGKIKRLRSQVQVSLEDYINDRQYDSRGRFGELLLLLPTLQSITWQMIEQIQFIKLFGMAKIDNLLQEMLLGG
Assay: Hybrid Gal4-HNF4α reporter gene assay in transiently transfected HEK293T cells
Assay type: cell-based

[1] = Table S1, primary screening, 50 µM

Compound | HNF4a-screening_activity_(mean_of_n=2) [1] | HNF4a-screening_activity_(mean_of_n=2)
CN1C(=O)CCC1=O [Prestw-Frag-2713, CN1C(=O)CCC1=O] | 0.9037 | 
N=C(N)NC(=N)Nc1ccc(Cl)cc1 [Prestw-Frag-2722, NC(=N)NC(=N)Nc1ccc(Cl)cc1] | 0.8665 | 
CCCOc1ccc(C(=O)OCC)cc1N [Prestw-Frag-2724, CCCOc1ccc(cc1N)C(=O)OCC] | 1.372 | 
CS(=O)(=O)Nc1ccccc1 [Prestw-Frag-2755, CS(=O)(=O)Nc1ccccc1] | 0.9874 | 
O=c1ccn([C@@H]2C[C@H](O)[C@@H](CO)O2)c(=O)[nH]1 [Prestw-Frag-2769, OC[C@H]1O[C@@H](C[C@@H]1O)n1ccc(=O)[nH]c1=O] | 0.8958 | 
CCN(CC)CCOC(=O)C1(c2ccccc2)CCCC1 [Prestw-Frag-2774, CCN(CC)CCOC(=O)C1(CCCC1)c1ccccc1] | 1.226 | 
c1ccc2c3c([nH]c2c1)CCCC3 [Prestw-Frag-2780, C1CCc2c(C1)[nH]c1ccccc21] |  | 0.7267
c1cc2c(cc1OC[C@H]1CCCNC1)OCO2 [Prestw-Frag-2789, C(Oc1ccc2OCOc2c1)[C@H]1CCCNC1] | 1.15 | 
CCNC(=O)c1cccnc1 [Prestw-Frag-2794, CCNC(=O)c1cccnc1] | 1.068 | 
COC(=O)c1c[nH]c2ccccc12 [Prestw-Frag-2799, COC(=O)c1c[nH]c2ccccc12] | 0.9379 | 
OC1CCN(c2ccccc2F)CC1 [Prestw-Frag-2803, OC1CCN(CC1)c1ccccc1F] | 1.103 | 
Cc1ccccc1Nc1ncccc1C(=O)O [Prestw-Frag-2806, Cc1ccccc1Nc1ncccc1C(O)=O] | 1.238 | 
O=C(O)c1cccnc1Nc1cccc(Cl)c1 [Prestw-Frag-2807, OC(=O)c1cccnc1Nc1cccc(Cl)c1] | 1.808 | 
NCCCOc1cccc(CN2CCCCC2)c1 [Prestw-Frag-2808, NCCCOc1cccc(CN2CCCCC2)c1] | 1.297 | 
Oc1cccc(CN2CCCCC2)c1 [Prestw-Frag-2809, Oc1cccc(CN2CCCCC2)c1] | 1.12 | 
CCNC(=O)c1ccc(Cl)cc1 [Prestw-Frag-2818, CCNC(=O)c1ccc(Cl)cc1] | 0.8348 | 
Nc1cccc(O)c1 [Prestw-Frag-2826, Nc1cccc(O)c1] | 1.072 | 
C[C@@H](O)c1cc(C(F)(F)F)cc(C(F)(F)F)c1 [Prestw-Frag-2849, C[C@@H](O)c1cc(cc(c1)C(F)(F)F)C(F)(F)F] | 1.171 | 
Clc1cccc(N2CCNCC2)c1Cl [Prestw-Frag-2853, Clc1cccc(N2CCNCC2)c1Cl] | 1.239 | 
O=C1CCc2ccc(O)cc2N1 [Prestw-Frag-2854, Oc1ccc2CCC(=O)Nc2c1] | 1.013 | 
c1ccc(C(c2ccccc2)n2ccnc2)cc1 [Prestw-Frag-2868, c1cn(cn1)C(c1ccccc1)c1ccccc1] | 0.7887 | 
c1ccc(-c2nnn[nH]2)cc1 [Prestw-Frag-2887, c1ccc(cc1)-c1nnn[nH]1] | 0.9719 | 
Oc1cc(Cl)c(Cl)cc1Cl [Prestw-Frag-2898, Oc1cc(Cl)c(Cl)cc1Cl] | 5.433 | 

Compound | HNF4a-screening_activity_(mean_of_n=2) [1] | HNF4a-screening_activity_(mean_of_n=2)
O=C(c1ccccc1)c1ccc(Br)cc1 [Prestw-Frag-2912, Brc1ccc(cc1)C(=O)c1ccccc1] | 0.975 | 
NCCCCN1CCN(c2ncccn2)CC1 [Prestw-Frag-2921, NCCCCN1CCN(CC1)c1ncccn1] | 1.125 | 
Nc1cccc(Nc2ncccn2)c1 [Prestw-Frag-2935, Nc1cccc(Nc2ncccn2)c1] | 1.004 | 
CC(C)(C)OC(=O)/C=C/c1ccccc1 [Prestw-Frag-2947, CC(C)(C)OC(=O)\C=C\c1ccccc1] | 1.247 | 
c1ccc(C2CNCCO2)cc1 (stereo not drawn) [Prestw-Frag-2958, C1COC(CN1)c1ccccc1] | 1.039 | 
COc1ccc(CC(=O)O)cc1 [Prestw-Frag-2960, COc1ccc(CC(O)=O)cc1] | 0.9108 | 
CCc1ccc(CCO)nc1 [Prestw-Frag-2968, CCc1ccc(CCO)nc1] | 1.216 | 
Nc1nc2c(s1)CCCC2 [Prestw-Frag-2972, Nc1nc2CCCCc2s1] | 1.123 | 
CCOc1ccccc1OCC1CNCCO1 (stereo not drawn) [Prestw-Frag-2992, CCOc1ccccc1OCC1CNCCO1] |  | 0.7878
CCOc1ccccc1O [Prestw-Frag-2995, CCOc1ccccc1O] | 0.8201 | 
c1ccc(-n2ccc3ccccc32)cc1 [Prestw-Frag-3011, c1cc2ccccc2n1-c1ccccc1] | 0.7452 | 
CN1CCN(S(=O)(=O)c2ccccc2)CC1 [Prestw-Frag-3012, CN1CCN(CC1)S(=O)(=O)c1ccccc1] | 0.8018 | 
CNS(=O)(=O)Cc1ccc2[nH]cc(CCN)c2c1 [Prestw-Frag-3017, CNS(=O)(=O)Cc1ccc2[nH]cc(CCN)c2c1] | 0.7522 | 
c1ccc2nccnc2c1 [Prestw-Frag-3033, c1ccc2nccnc2c1] | 0.9657 | 
O=C1c2nccnc2C(O)N1c1ccc(Cl)cn1 (stereo not drawn) [Prestw-Frag-3046, OC1N(C(=O)c2nccnc12)c1ccc(Cl)cn1] | 0.8017 | 
Cc1ccc(N)c(C#N)c1 [Prestw-Frag-3060, Cc1ccc(N)c(c1)C#N] | 0.8715 | 
OCCc1ccc(Cl)cc1 [Prestw-Frag-3062, OCCc1ccc(Cl)cc1] | 0.9659 | 
O=C1c2ccc(Cl)cc2CCc2cccnc21 [Prestw-Frag-3073, Clc1ccc2c(CCc3cccnc3C2=O)c1] | 0.9858 | 
CCN(CC)C(=O)/C=C/c1ccccc1 [Prestw-Frag-3088, CCN(CC)C(=O)\C=C\c1ccccc1] | 0.9663 | 
O=C(O)/C=C/c1cnc[nH]1 [Prestw-Frag-3090, OC(=O)\C=C\c1cnc[nH]1] | 1.054 | 
OCc1ccc(F)cc1F [Prestw-Frag-3100, OCc1ccc(F)cc1F] | 0.9757 | 
OCCn1cncn1 [Prestw-Frag-3101, OCCn1cncn1] | 0.9898 | 
CCCCc1nc(Cl)c(CO)[nH]1 [Prestw-Frag-3114, CCCCc1nc(Cl)c(CO)[nH]1] | 0.9053 | 

Compound | HNF4a-screening_activity_(mean_of_n=2) [1] | HNF4a-screening_activity_(mean_of_n=2)
CCN(CC)CCNC(=O)c1ccc(N)c(Cl)c1 [Prestw-Frag-3120, CCN(CC)CCNC(=O)c1ccc(N)c(Cl)c1] | 1.18 | 
c1ccc2c(c1)CCCN2 [Prestw-Frag-3137, C1CNc2ccccc2C1] | 0.9914 | 
Fc1cccnc1N1CCCC1 [Prestw-Frag-3150, Fc1cccnc1N1CCCC1] | 1.041 | 
COc1ccc2c(c1)CCCC2 [Prestw-Frag-3188, COc1ccc2CCCCc2c1] | 0.8877 | 
Nc1nc(N)nc(-c2ccccc2)n1 [Prestw-Frag-3190, Nc1nc(N)nc(n1)-c1ccccc1] | 0.8184 | 
O=C(Cc1ccccc1F)C1CC1 [Prestw-Frag-3198, Fc1ccccc1CC(=O)C1CC1] | 1.083 | 
Cc1ccccc1C(=O)Nc1ccccc1 [Prestw-Frag-3202, Cc1ccccc1C(=O)Nc1ccccc1] | 1.357 | 
Oc1ccccc1OCC(F)(F)F [Prestw-Frag-3225, Oc1ccccc1OCC(F)(F)F] | 1.152 | 
Cc1cn(-c2cc(N)cc(C(F)(F)F)c2)cn1 [Prestw-Frag-3241, Cc1cn(cn1)-c1cc(N)cc(c1)C(F)(F)F] | 1.061 | 
Cc1cc(C)nc(O)n1 [Prestw-Frag-3247, Cc1cc(C)nc(O)n1] | 1.288 | 
O=C(O)CC(c1ccccc1)c1ccccc1 [Prestw-Frag-3250, OC(=O)CC(c1ccccc1)c1ccccc1] | 1.055 | 
FC(F)(F)c1nnc2n1CCNC2 [Prestw-Frag-3253, FC(F)(F)c1nnc2CNCCn12] | 1.371 | 
c1ccc(N2CCN(c3ccccc3)CC2)cc1 [Prestw-Frag-3257, C1CN(CCN1c1ccccc1)c1ccccc1] | 1.063 | 
CN1CCN(c2cc(N)ncn2)CC1 [Prestw-Frag-3262, CN1CCN(CC1)c1cc(N)ncn1] | 1.186 | 
Nc1ccn([C@H]2C[C@H](O)[C@@H](CO)O2)c(=O)n1 [Prestw-Frag-3264, Nc1ccn([C@H]2C[C@H](O)[C@@H](CO)O2)c(=O)n1] | 1.086 | 
COc1ccc(S(=O)(=O)N2CCNCC2)cc1 [Prestw-Frag-3313, COc1ccc(cc1)S(=O)(=O)N1CCNCC1] | 1.073 | 
CCOc1ccccc1C(=N)N [Prestw-Frag-3314, CCOc1ccccc1C(N)=N] | 1.051 | 
Nc1ncc([N+](=O)[O-])s1 [Prestw-Frag-3324, Nc1ncc(s1)[N+]([O-])=O] | 0.8744 | 
Nc1ncnc2c1ncn2CCO [Prestw-Frag-3329, Nc1ncnc2n(CCO)cnc12] | 1.131 | 
O=C(c1ccc(C(F)(F)F)cc1)C1CCCCC1 [Prestw-Frag-3334, FC(F)(F)c1ccc(cc1)C(=O)C1CCCCC1] | 1.014 | 
NC(=O)c1ccc2[nH]ccc2c1 [Prestw-Frag-3336, NC(=O)c1ccc2[nH]ccc2c1] | 1.118 | 
Nc1ccc(CS(=O)(=O)N2CCCC2)cc1 [Prestw-Frag-3341, Nc1ccc(CS(=O)(=O)N2CCCC2)cc1] | 1.256 | 
COc1ccc(CC(C)N)cc1 (stereo not drawn) [Prestw-Frag-3342, COc1ccc(CC(C)N)cc1] | 1.446 | 

Source: article PMC7660650, “Chemical Starting Matter for HNF4α Ligand Discovery and Chemogenomics” (International Journal of Molecular Sciences, 2020)
